# According to PubChem BioAssay AID2060485 (Molecular Pharmacology Branch, DTP, NCI, 2025):
# System: A375 multi-cell spheroids with HUVEC/MSC, viability
# Assay: Anticancer human tumor A375 cell line growth inhibition [GQUAD];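 further: spheroids exposed to compounds for seven days before readout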
# Details: for IC50: curve of first compound; for viability, T/C: stronger effect = lower value
# Outline: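 Multi-cell-type spheroids of tumor cells with HUVEC and mesenchymal stem cells, treated with drug combinations. Concentrations descend in half-log steps from near clinical Cmax, or from 10 microM where Cmax is unknown; viability read-out.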
# [1] = second compound 0.0316 µM, first compound 0.0316 µM
# [2] = second compound 0.0316 µM, first compound 0.1 µM
# [3] = second compound 0.0316 µM, first compound 0.316 µM
# [4] = second compound 0.0316 µM, first compound 1 µM
# [5] = second compound 0.0316 µM, first compound 3.16 µM
# [6] = second compound 0.0316 µM, first compound 10 µM
# [7] = second compound 0.1 µM, first compound 0.0316 µM
# [8] = second compound 0.1 µM, first compound 0.1 µM
# [9] = second compound 0.1 µM, first compound 0.316 µM
# [10] = second compound 0.1 µM, first compound 1 µM
# [11] = second compound 0.1 µM, first compound 3.16 µM
# [12] = second compound 0.1 µM, first compound 10 µM
# [13] = second compound 0.316 µM, first compound 0.0316 µM
# [14] = second compound 0.316 µM, first compound 0.1 µM
# [15] = second compound 0.316 µM, first compound 0.316 µM
# [16] = second compound 0.316 µM, first compound 1 µM
# [17] = second compound 0.316 µM, first compound 3.16 µM
# [18] = second compound 0.316 µM, first compound 10 µM
# [19] = second compound 1 µM, first compound 0.0316 µM
# [20] = second compound 1 µM, first compound 0.1 µM
# [21] = second compound 1 µM, first compound 0.316 µM
# [22] = second compound 1 µM, first compound 1 µM
# [23] = second compound 1 µM, first compound 3.16 µM
# [24] = second compound 1 µM, first compound 10 µM
# [25] = second compound 3.16 µM, first compound 0.0316 µM
# [26] = second compound 3.16 µM, first compound 0.1 µM
# [27] = second compound 3.16 µM, first compound 0.316 µM
# [28] = second compound 3.16 µM, first compound 1 µM
# [29] = second compound 3.16 µM, first compound 3.16 µM
# [30] = second compound 3.16 µM, first compound 10 µM
# [31] = second compound 10 µM, first compound 0.0316 µM
# [32] = second compound 10 µM, first compound 0.1 µM
# [33] = second compound 10 µM, first compound 0.316 µM
# [34] = second compound 10 µM, first compound 1 µM
# [35] = second compound 10 µM, first compound 3.16 µM
# [36] = second compound 10 µM, first compound 10 µM
smiles,measurement,setting,value
COc1cccc2c1C(=O)c1c(O)c3c(c(O)c1C2=O)CC(O)(C(=O)CO)CC3OC1CC(N)C(O)C(C)O1 (stereo unspecified) + Cc1[nH]c2ccc(F)cc2c1-c1nc2c3cccnc3c3ncccc3c2[nH]1,IC50,second compound 0.0316 µM,271 nM
same,IC50,second compound 0.1 µM,216 nM
same,IC50,second compound 0.316 µM,286 nM
same,IC50,second compound 1 µM,251 nM
same,IC50,second compound 3.16 µM,288 nM
same,IC50,second compound 10 µM,326 nM
same,"viability, T/C",[1],101%
same,"viability, T/C",[2],90.8%
same,"viability, T/C",[3],38.9%
same,"viability, T/C",[4],20.5%
same,"viability, T/C",[5],2.15%
same,"viability, T/C",[6],0.1%
same,"viability, T/C",[7],103%
same,"viability, T/C",[8],74.5%
same,"viability, T/C",[9],35.2%
same,"viability, T/C",[10],19.8%
same,"viability, T/C",[11],2.23%
same,"viability, T/C",[12],0.08%
same,"viability, T/C",[13],110%
same,"viability, T/C",[14],89.2%
same,"viability, T/C",[15],41.3%
same,"viability, T/C",[16],22.7%
same,"viability, T/C",[17],3.01%
same,"viability, T/C",[18],0.09%
same,"viability, T/C",[19],99.3%
same,"viability, T/C",[20],82.8%
same,"viability, T/C",[21],38.7%
same,"viability, T/C",[22],18.7%
same,"viability, T/C",[23],3.16%
same,"viability, T/C",[24],0.1%
same,"viability, T/C",[25],68.2%
same,"viability, T/C",[26],60.1%
same,"viability, T/C",[27],49.4%
same,"viability, T/C",[28],21.3%
same,"viability, T/C",[29],0.45%
same,"viability, T/C",[30],0.13%
same,"viability, T/C",[31],71.9%
same,"viability, T/C",[32],72%
same,"viability, T/C",[33],48.9%
same,"viability, T/C",[34],20.9%
same,"viability, T/C",[35],1.35%
same,"viability, T/C",[36],0.22%
Nc1ccn(C2OC(CO)C(O)C2(F)F)c(=O)n1 (stereo unspecified) + Cc1[nH]c2ccc(F)cc2c1-c1nc2c3cccnc3c3ncccc3c2[nH]1,IC50,second compound 0.0316 µM,< 31.6 nM
same,IC50,second compound 0.1 µM,< 31.6 nM
same,IC50,second compound 0.316 µM,< 31.6 nM
same,IC50,second compound 1 µM,< 31.6 nM
same,IC50,second compound 3.16 µM,< 31.6 nM
same,IC50,second compound 10 µM,< 31.6 nM
same,"viability, T/C",[1],20.4%
same,"viability, T/C",[2],11%
same,"viability, T/C",[3],10.3%
same,"viability, T/C",[4],8.14%
same,"viability, T/C",[5],10.7%
same,"viability, T/C",[6],10.2%
same,"viability, T/C",[7],22.9%
same,"viability, T/C",[8],9.94%
same,"viability, T/C",[9],12%
same,"viability, T/C",[10],9.5%
same,"viability, T/C",[11],12.2%
same,"viability, T/C",[12],8.91%
same,"viability, T/C",[13],21.1%
same,"viability, T/C",[14],12.7%
same,"viability, T/C",[15],11.2%
same,"viability, T/C",[16],10.8%
same,"viability, T/C",[17],10.8%
same,"viability, T/C",[18],11.3%
same,"viability, T/C",[19],22.9%
same,"viability, T/C",[20],12.7%
same,"viability, T/C",[21],14.8%
same,"viability, T/C",[22],13.6%
same,"viability, T/C",[23],12.8%
same,"viability, T/C",[24],11.8%
same,"viability, T/C",[25],15.4%
same,"viability, T/C",[26],13.1%
same,"viability, T/C",[27],13%
same,"viability, T/C",[28],13.9%
same,"viability, T/C",[29],19%
same,"viability, T/C",[30],13.9%
same,"viability, T/C",[31],16.1%
same,"viability, T/C",[32],10.7%
same,"viability, T/C",[33],10.9%
same,"viability, T/C",[34],10.3%
same,"viability, T/C",[35],13.2%
same,"viability, T/C",[36],12%
O=c1[nH]cc(F)c(=O)[nH]1 + Cc1[nH]c2ccc(F)cc2c1-c1nc2c3cccnc3c3ncccc3c2[nH]1,IC50,second compound 0.0316 µM,> 10000 nM
same,IC50,second compound 0.1 µM,> 10000 nM
same,IC50,second compound 0.316 µM,> 10000 nM
same,IC50,second compound 1 µM,> 10000 nM
same,IC50,second compound 3.16 µM,> 10000 nM
same,IC50,second compound 10 µM,> 10000 nM
same,"viability, T/C",[1],102%
same,"viability, T/C",[2],99%
same,"viability, T/C",[3],109%
same,"viability, T/C",[4],105%
same,"viability, T/C",[5],97.9%
same,"viability, T/C",[6],92.9%
same,"viability, T/C",[7],106%
same,"viability, T/C",[8],93.2%
same,"viability, T/C",[9],105%
same,"viability, T/C",[10],114%
same,"viability, T/C",[11],103%
same,"viability, T/C",[12],101%
same,"viability, T/C",[13],96%
same,"viability, T/C",[14],92.9%
same,"viability, T/C",[15],102%
same,"viability, T/C",[16],95.2%
same,"viability, T/C",[17],112%
same,"viability, T/C",[18],103%
same,"viability, T/C",[19],101%
same,"viability, T/C",[20],103%
same,"viability, T/C",[21],111%
same,"viability, T/C",[22],97.6%
same,"viability, T/C",[23],115%
same,"viability, T/C",[24],102%
same,"viability, T/C",[25],83.9%
same,"viability, T/C",[26],90.9%
same,"viability, T/C",[27],93.6%
same,"viability, T/C",[28],88.4%
same,"viability, T/C",[29],101%
same,"viability, T/C",[30],80.3%
same,"viability, T/C",[31],88.2%
same,"viability, T/C",[32],81.6%
same,"viability, T/C",[33],111%
same,"viability, T/C",[34],104%
same,"viability, T/C",[35],96.3%
same,"viability, T/C",[36],77.4%
